# Like-named read-outs stand apart in the source and are kept apart here.
# Tests used:
# Format in all cases: cell-based
# ML1 channel = target: T1, ML1 channel (Homo sapiens, UniProt Q9GZU1); assay: Endolysosomal electrophysiology (whole-endolysosome patch-clamp)
# T1 construct: host or cells: unnamed cells treated with vacuolin-1; isolated enlarged endolysosomes
# Protocol: Endolysosomal electrophysiology was performed in isolated endolysosomes using a modified patch-clamp method. Briefly, cells were treated with 1 μM vacuolin-1 for 2-5 h to increase the size of endosomes and lysosomes. Whole-endolysosome recordings were performed on isolated enlarged LELs. The bath (internal/cytoplasmic) solution contained 140 mM K-gluconate, 4 mM NaCl, 1 mM EGTA, 2 mM Na2-ATP, 2 mM MgCl2, 0.39 mM CaCl2), 0.2 mM GTP and 10 mM HEPES (pH adjusted with KOH to 7.2; free [Ca^2+]i˜100 nM based on the Maxchelator software (http://maxchelator.stanford.edu/)). The pipette (luminal) solution consisted of a ‘Low pH Tyrode's solution with 145 mM NaCl, 5 mM KCl, 2 mM CaCl2), 1 mM MgCl2, 10 mM HEPES, 10 mM MES and 10 mM glucose (pH 4.6). All bath solutions were applied via a perfusion system to achieve a complete solution exchange within a few seconds. Data were collected using an Axopatch 2A patch clamp amplifier, Digidata 1440 and pClamp 10.0 software (Axon Instruments). Whole-cell currents were digitized at 10 kHz and filtered at 2 kHz. All experiments were conducted at room temperature (21-23° C.), and all recordings were analyzed with pClamp 10.0 and Origin 8.0 (OriginLab, Northampton, Mass., USA). ML1 channel activity was induced by synthetic agonists ML-SA1 or […], and inhibited by ML-S13 or ML-S14.
# In this electrophysiology assays, compounds were tested with both basal and agonist-induced ML1 currents. Examples B11, B11a, B11b, B40, B41, B44, B5, B47, B48, B49, B50, B51, B54, B57, B58, B59, B62, B63, B68, B69, B71, B72, B75, B75, and B76 were tested with basal ML1 currents. […] In particular, Examples B11, B11a and B11b inhibited basal ML1 currents with IC50<100 nM. Examples B11, B11a and B11b are shown below. Examples B1-4, B2-1, B-2-2, B2-3, B2-4, 3-4, B5, B6-2, B9-4, B-10, B-10-4, B11, B12, B13, B14, B15, B16, B18, B19, B20, B21, B22, B23, B25, B26, B27, B28, B29, B30, B32, B34, B40, B41, B44, B45, B46, B47, B48, B49, B50, B51, B52, B59, and B66 were tested in ML1 currents activated by ML1 agonists (ML-SA1 or ML-SA5). […] In particular, B11 inhibited the ML-SA1-activated currents with IC50<1,000 nM. Example B11 is shown below.
# cultured parietal cells = assay: Gastric acid secretion assay (histamine-stimulated VAC formation)
# Protocol: Acid secretion was measured in cultured parietal cells upon histamine stimulation. Briefly, after mucosal digestion of isolated glands, supernatants were pelleted by centrifugation at 200×g, washed three times with HEPES-MEM, and re-suspended in Medium A. Approximately 70% of the total gastric cells suspended in Medium A were parietal cells. The cells were plated onto Matrigel-coated 18-mm round coverslips or 35-mm dishes and incubated at 37° C. In cultured parietal cells, upon secretagogue stimulation, apical canalicular membranes are engulfed into the cell to form multiple actin-wrapped vacuoles known as vacuolar apical compartments (VACs), which remain separate from the basolateral membrane and free TVs in the cytosol (Nakada, S. L., Crothers, J. M., Jr., Machen, T. E., and Forte, J. G. (2012). Apical vacuole formation by gastric parietal cells in primary culture: effect of low extracellular Ca2+. American journal of physiology Cell physiology 303, C1301-1311.). […] In resting WT cells, small (diameter <2 μm) VACs were observed occasionally with a total surface area <10 μm^2. VACs formed within 10-20 min after bath application of histamine and then fused together to generate one or a few large VACs (up to 8 μm in diameter; total VAC surface area >50 μm^2). The apical membrane vacuole surface area during resting and stimulated states was measured for all VACs that were visible in multiple (3-6) Z-cross sections. Data were analyzed in ImageJ (NIH).
# In this acid secretion assay, histamine-stimulated VAC formation was abolished by ML-S4 at 10 μM (Zhang X, Cheng X, Yu L, Yang J, Calvo R, Patnaik S, Hu X, Gao Q, Yang M, Lawas M, Delling M, Marugan J, Ferrer M, and Xu H. 2016, PMID: 27357649).
# ML1 = target: T2, ML1 (UniProt Q99J21); assay: Lysosomal Ca2+ imaging in Tet-On HEK-GCaMP3-ML1 cells; conditions: zero Ca2+ solution, ML-SA1 trigger, read-out: inhibition of ML-SA1-induced lysosomal Ca2+ release, IC50
# T2 construct: fused on or other part: GCaMP3 (genetically encoded Ca2+ indicator) fused to ML1 as the reporter handle; in the published construct it sits at the N-terminus
# Protocol: GCaMP3-ML1 expression was induced in Tet-On HEK-GCaMP3-ML1 cells 20-24 h prior to experiments using […] doxycycline. GCaMP3-ML1 fluorescence was monitored at an excitation wavelength of 470 nm (F470) using an EasyRatio Pro system (PTI). Cells were bathed in Tyrode's solution containing 145 mM NaCl, 5 mM KCl, 2 mM CaCl2), 1 mM MgCl2, 10 mM Glucose, and 20 mM Hepes (pH 7.4). Lysosomal Ca^2+ release was measured in a zero Ca^2+ solution containing 145 mM NaCl, 5 mM KCl, 3 mM MgCl2, 10 mM glucose, 1 mM EGTA, and 20 mM HEPES (pH 7.4). Ca^2+ concentration in the nominally free Ca^2+ solution is estimated to be 1-10 μM. With 1 mM EGTA, the free Ca^2+ concentration is estimated to be <10 nM based on the Maxchelator software (http://maxchelator.stanford.edu/). Experiments were carried out 0.5 to 6 hrs after plating. ML1-mediated lysosomal Ca^2+ release was triggered by synthetic agonists ML-SA1, and inhibited by ML-S13 and aforementioned testing compounds.
# [1] = basal ML1 currents, isolated enlarged endolysosomes, read-out: inhibition of basal ML1 currents, IC50
# T1 sequence (Q9GZU1 whole entry): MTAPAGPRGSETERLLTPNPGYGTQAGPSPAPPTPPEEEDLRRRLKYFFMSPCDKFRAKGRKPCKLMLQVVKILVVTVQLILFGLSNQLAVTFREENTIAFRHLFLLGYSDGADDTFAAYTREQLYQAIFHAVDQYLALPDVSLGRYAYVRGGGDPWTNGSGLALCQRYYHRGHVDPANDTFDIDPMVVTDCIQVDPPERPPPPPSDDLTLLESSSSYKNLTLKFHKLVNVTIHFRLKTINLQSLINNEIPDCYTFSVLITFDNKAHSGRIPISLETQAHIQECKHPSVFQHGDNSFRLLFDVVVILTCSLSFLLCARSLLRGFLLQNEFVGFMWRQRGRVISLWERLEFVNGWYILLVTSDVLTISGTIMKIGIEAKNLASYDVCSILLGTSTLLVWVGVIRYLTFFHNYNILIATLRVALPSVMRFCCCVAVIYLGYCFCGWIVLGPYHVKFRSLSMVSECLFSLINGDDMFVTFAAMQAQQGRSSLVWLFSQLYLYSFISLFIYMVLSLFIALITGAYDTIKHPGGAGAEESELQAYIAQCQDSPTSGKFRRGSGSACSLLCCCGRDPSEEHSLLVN
IC50 (ML1 channel; [1]),"IC50 (ML1 channel; currents activated by ML1 agonist ML-SA1, read-out: inhibition of ML-SA1-activated ML1 currents, IC50)",IC50 (ML1),SMILES,histamine-induced VAC formation (cultured parietal cells; at 0.5 μM),histamine-induced VAC formation (cultured parietal cells; at 2 μM)
< 100 nM,< 1000 nM,,"Cc1ccc(S(=O)(=O)N2c3cc(F)ccc3CCC2CCc2ccc(Cl)cc2F)cc1 (stereo not drawn) [Example B11, 2-(4-Chloro-2-fluorophenethyl)-7-fluoro-1-tosyl-1,2,3,4-tetrahydroquinoline]",significantly inhibited,abolished
< 100 nM,,,Cc1ccc(S(=O)(=O)N2c3cc(F)ccc3CC[C@@H]2CCc2ccc(Cl)cc2F)cc1 [Example B11a],,
< 100 nM,,< 1000 nM,Cc1ccc(S(=O)(=O)N2c3cc(F)ccc3CC[C@H]2CCc2ccc(Cl)cc2F)cc1 [Example B11b],significantly inhibited,abolished

# — patent US20200352921A1, “ARYL-SULFONAMIDE AND ARYL-SULFONE DERIVATIVES AS TRPML MODULATORS” (CalyGene Biotechnolgy, Inc., priority 2017, published 2020)
